# Results taken from patent US4921871A, “Enolamides, pharmaceutical compositions and methods of use thereof for treating inflammation” (Warner-Lambert Company, priority 1987, dated 1990).
# Assays:
# [1] = molecular target: T1, leukotriene receptor (Cavia porcellus, UniProt Q2NNR5); experiment: Binding of 3H-Leukotriene D4 to Guinea Pig Lung Membranes (RBL); conditions: 1.00 E -4 M
# T1 construct: Two pairs of lungs (1.3 g) from freshly sacrificed 300 g male guinea pigs; tissue Kuiper Rabbit Farm, Gary, Ind; (animals); host or cells: guinea pig lung, crude membranes
# T1 sequence (Q2NNR5 1-340): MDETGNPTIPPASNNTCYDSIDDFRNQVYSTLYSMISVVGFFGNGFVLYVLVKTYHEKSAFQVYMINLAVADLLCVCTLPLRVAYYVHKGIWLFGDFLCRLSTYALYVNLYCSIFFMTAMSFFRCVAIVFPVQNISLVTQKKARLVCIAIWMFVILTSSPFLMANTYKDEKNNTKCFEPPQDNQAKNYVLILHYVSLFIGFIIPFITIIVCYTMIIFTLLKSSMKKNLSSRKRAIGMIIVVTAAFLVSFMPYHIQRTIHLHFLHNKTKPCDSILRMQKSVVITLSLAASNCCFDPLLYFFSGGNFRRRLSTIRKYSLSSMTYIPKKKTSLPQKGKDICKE
# Experimental: Additionally, the activity, of the compounds having the Formula I of the present invention is determined by the well known leukotriene receptor binding assay that is described by R. F. Bruns, W. J. Thomsen and T. A. Pugsley in Life Sciences, 33, 645 (1983) or the Herxheimer in vivo antiallergy test described in H. Herxheimer, J. Physiol. (London), Vol. 177, p. 251 (1952).
# [14,15-^3 H]leukotriene D4 (^3 H-LTD4) (25 Ci/mmol and 40 Ci/mmol) is purchased from New England Nuclear. Unlabeled LTC4 is a gift of Ono Pharmaceuticals (Japan). LTC4, LTD4, and LTE4 are purchased as methyl esters from Paesel GmbH (Frankfurt, W. Germany). Concentrations of the Paesel leukotrienes are calculated from their absorbance at 280 nm. Leukotriene esters are saponified overnight under N2 in 3.3% potassium carbonate at room temperature. Tritiated leukotrienes are stored as received from New England Nuclear at -20° C. Ono LTC4 (5 μg/ml) is stored at -60° C. in phosphate buffer pH - 6.8. Saponified Paesel leukotrienes are stored at -60° C. in 3.3% potassium carbonate (pH 9.0-9.5). Aliquots of leukotrienes are taken from stock solutions immediately after thawing, after which the stock solutions are immediately refrozen. 2-Amino-2-(hydroxymethyl)-1,3-propanediol (Tris) is Sigma pH 7.7 pre-set crystals, and dimethylsulfoxide is Aldrich Gold Label. Preparation of crude lung membranes
# Two pairs of lungs (1.3 g) from freshly sacrificed 300 g male guinea pigs (older animals gave substantially lower binding) from Kuiper Rabbit Farm, Gary, Ind. are disrupted with a Polytron PT 10 (setting 4) for 30 seconds in 20 ml ice-cold 50 mM Tris adjusted with HCl to pH 7.7 at 25° C. (Tris buffer), filtered through a single layer of gauze to remove connective tissue, and centrifuged at 50,000 xg for ten min. The pellet is resuspended by homogenization with a Polytron in 20 ml Tris buffer, centrifuged at 50,000 xg for ten min., resuspended, incubated at 37° C. for 30 minutes, and centrifuged again. The final pellet is resuspended in Tris buffer and either used fresh or stored at -70° C.
# All incubations are in triplicate for 60 minutes at 25° C. in 12×75 mm polystyrene tubes containing 1 ml Tris buffer with 20 mg original tissue wet weight of guinea pig lung membranes, 0.2 nM ^3 H-LTD4 (6,000-11,000 cpm), 10 mM MgCl2, and 1% dimethylsulfoxide. Leukotrienes are diluted in Tris buffer. All other test compounds dissolved at 10 mM in dimethylsulfoxide on the same day as the experiment, and diluted in dimethylsulfoxide to 100× the final incubation concentration. Control incubations receive an equal volume (10 μl) of dimethylsulfoxide; the resulting concentration of dimethylsulfoxide had no effect on binding. ^3 H-LTD4 is diluted to 2 nM in Tris buffer. The membrane suspension (20 mg/0.89 ml) contains sufficient MgCl2 to give 10 mM final concentration in the incubation. […] All additions are performed at 0° C. Immediately after the last addition, the incubation is initiated by agitating the rack of tubes on a vortex mixer and warming to 25° C. in a water bath. Tubes are vortexed at least once more during the incubation to ensure that the membranes remained suspended. Incubations are terminated after 60 minutes by filtering under reduced pressure through 25 mm Whatman GF/B filters followed by rapid washing three times with 4 ml of ice-cold Tris buffer. Filters are added to scintillation vials with 8 ml Formula 947 (New England Nuclear), left overnight, shaken, and the radioactivity counted in a scintillation counter (efficiency 40%). Nonspecific binding, defined as binding of ^3 H-LTD4 in the presence of 100 nM LTC4, is 300-500 cpm for all lots of ^3 H-LTD4. Binding to the filters in the absence of tissue is about 100 cpm, and is not affected by unlabeled LTC4. Specific binding, defined as total binding minus nonspecific binding, varied considerably from lot to lot of ^3 H-LTD4. […]
# [2] = system: Human Leukocyte Lipoxygenase; experiment: Human Leukocyte Lipoxygenase Assay (LDA-H); format: biochemical; conditions: 2.50 E -5 M
# Experimental: Whole blood is collected from normal volunteers and spun in a refrigerated centrifuge for four minutes at 1°-6° C. at 3800 g. The buffy coat is manually separated and washed twice with chilled 0.83% NH4 Cl and centrifuged at 1000 RPM for ten minutes at 4° C. The white cell is suspended in culture media-EMEM supplemented with 6% Agamma human serum, tricine buffer, and neomycin and recentrifuged at 1000 g to yield a pellet containing the leukocytes used for the preparation of the acetone pentane powder.
# The acetone-pentane powder is prepared utilizing a modification of the procedure reported for human platelet lipoxygenase. See Siegel, et al, Arachidonate Metabolism via Lipoxygenase and 12-L-hydro-peroxy-5 Eicosatetraenoic Acid Peroxidase Sensitive to Antiinflammatory Drugs, Proc. Natl. Acad. Sci., U.S.A. 77:308, 1980 and D. P. Wallach and V. R. Brown, A Novel Preparation of Human Platlet Lipoxygenase, Biochem. Biophys. Acta. 663:361, 1981. Buffy coat prepared above is resuspended in 5-7 volumes of cold 0.1M Tris buffer, pH 7.4 containing 0.154M NaCl. The suspension is centrifuged at 13,300 g for ten minutes at 4° C. The resultant pellet is retained, resuspended in five volumes of cold acetone, recentrifuged at 13,300 g and resuspended in five volumes of cold pentane. The pentane suspension is centrifuged for ten minutes at 13,300 g to give a pellet which is dried in the cold under vacuum with periodic pulverization. The dry powder is stable for several weeks when stored at -80° C.
# Enzyme stock solution is prepared in the following manner. About 15 mg of the acetone-pentane powder is suspended in 4 ml of cold tris buffer (0.1M, pH 7.4), allowed to stand for five minutes, and homogenized thoroughly. The homogenate is sonicated three times for 15 seconds each time, diluted to 7 ml with cold tris buffer (0.1M, pH 7.4), and centrifuged at 4° C. for 60 minutes at 13,300 g. The supernatent is retained and diluted to a total of 10 ml with cold tris buffer (0.1M, pH 7.4) to give the stock enzyme solution. Additional dilutions of 2-50 fold are done as necessary to locate optimal enzyme reaction rate in the assay described below.
# Substrate solution is prepared at 100 μM or 1.0 μM concentrations of arachidonic acid or linoleic acid in 0.1M tris buffer, pH 9.0 containing 20% ethanol.
# The enzyme reaction is followed spectrophotometrically by the appearance of a conjugated diene product at 234 nm. The reaction is monitored at 24° C. using a Gilford Model 2600 spectrophotometer. […] The effects of inhibitors on the reaction are compared with control reactions run under indentical conditions. Routinely, each compounds of the present invention is incubated with the enzyme for five minutes prior to addition of substrate to initiate the reaction. Inhibition expressed as IC50 as molar concentration of the compound required to reduce reaction rate to 50% control.
# [3] = molecular target: T2, human leukocyte 5-lipoxygenase (Homo sapiens, UniProt P09917); experiment: 5-Lipoxygenase assay in human leukocytes, formation of 5-HETE (5LOA; 5LOA1 or 5LOA2 not specified); format: cell-based
# T2 construct: endogenous in cells; host or cells: leukocytes from fresh human blood
# T2 sequence (P09917 1-674): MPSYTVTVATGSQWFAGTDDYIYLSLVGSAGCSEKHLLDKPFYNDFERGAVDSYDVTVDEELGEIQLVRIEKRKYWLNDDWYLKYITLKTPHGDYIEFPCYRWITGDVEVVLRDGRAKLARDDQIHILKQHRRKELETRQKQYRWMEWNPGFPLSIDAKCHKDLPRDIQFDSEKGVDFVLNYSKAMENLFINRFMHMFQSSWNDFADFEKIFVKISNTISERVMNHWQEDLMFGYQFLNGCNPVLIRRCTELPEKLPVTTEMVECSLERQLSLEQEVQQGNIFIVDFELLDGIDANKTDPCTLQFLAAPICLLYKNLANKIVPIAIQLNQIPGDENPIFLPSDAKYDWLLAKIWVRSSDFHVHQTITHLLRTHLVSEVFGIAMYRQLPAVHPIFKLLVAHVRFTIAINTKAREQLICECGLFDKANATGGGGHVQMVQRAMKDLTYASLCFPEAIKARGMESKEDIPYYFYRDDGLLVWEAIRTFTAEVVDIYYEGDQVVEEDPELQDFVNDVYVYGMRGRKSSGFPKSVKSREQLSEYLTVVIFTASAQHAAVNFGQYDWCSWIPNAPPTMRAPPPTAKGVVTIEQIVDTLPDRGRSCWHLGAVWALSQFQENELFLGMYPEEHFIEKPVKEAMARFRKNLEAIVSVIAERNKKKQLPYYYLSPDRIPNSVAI
# Description: To Evaluate the Effect of Each Compounds as a 5-Lipoxygenase Inhibitor in Comparison to Standard Reference Agents in Human Leukocytes (5LOAl)
# The purpose of this assay is to evaluate the activity of each compound as an inhibitor of human leukocyte 5-lipoxygenase.
# Arachidonic acid and calcium ionophore A23l87 are obtained from Sigma (St. Louis, Mo.). Silica gel plates, GF are obtained from Analtech (Newark, Del.). Arachidonic acid, (1-^14 C) and 5-HETE (^3 H), 5 (S)-hydroxy-6-trans, 8,11,14-cis eicosatetraenoic acid, are obtained from New England Nuclear (Boston, Mass.). Six percent Dextran-70 in 0.9% NaCl is obtained from Cutter Labs (Berkeley, Calif.).
# Fresh blood from normal adult men who had not received any drugs for at least the previous five days is obtained by the Community Research Clinic (WL/PD) using venipuncture and collected into heparinized vacuotainer tubes. To every 100 ml of pooled blood is added 25 ml of dextran solution (6% dextran -70 in 0.9% sodium chloride containing 3% dextrose) and this is mixed gently in a plastic cylinder. The mixture is left to stand at room temperature for at least 90 minutes. The upper layer which is rich in leukocytes and platelets is then carefully decanted into 50 ml plastic tubes and centrifuged at about 100×g for eight minutes in an IEC centrifuge and rotor number 269 (about 600 rpm). The supernatant fluid is discarded and the pellet is resuspended in 10 ml of 0.87% ammonium chloride for exactly two minutes. This procedure is to lyse completely contaminating red blood cells. Leukocytes are then separated by centrifugation for ten minutes. The pellet is washed three times by suspension in 20 ml PBS (sodium chloride, 7.1 g; Na2 HPO4, 1.15 g; KH2 PO4, 0.2 g, and KCl, 0.2 g/L) and centrifuged as before. The final pellet is suspended in PBS containing 0.87 mM CaCl2. Viability of the cells is then checked using trypan blue exclusion method and is found to be over 90%.
# Leukocyte cells in suspension (0.98 ml) are incubated with or without test compounds for five minutes at 37° C. in a shaking water bath. At this time a 17 μl mixture is prepared per 1 ml of cell suspension: 100 mM arachidonic acid, 1 μl, 0.05 μCi ^14 C-arachidonic acid in 5 .rho.l; 1 mM calcium ionophore A23187, 10 μl (1). This mixture is added and the incubation continued for five minutes. The reaction is stopped by adding four volumes of absolute ethanol and the mixture is kept in ice for 30 minutes. The floculated precipitate is separated by centrifugation at about 37,000×g for 20 minutes (Beckman Instruments rotor number 40). The alcohol extract is taken to dryness under a stream of nitrogen and the residue is dissolved in 100-200 μl absolute ethanol. At the time any turbidity is removed by centrifugation. An aliquot (25-50 μl) is applied onto 20×20 cm silica gel TLC plate and developed using the following solvent system: diethyl ether, petroleum ether (2040° C.), acetic acid (50:50: 1 v/v). Zones of 1 cm apart are scraped from the TLC plate and transferred to mini-vials. Methanol (0.5 ml) is added to dissolve the radioactivity adsorbed to the silica gel and scintillation fluid (H.P., Beckman), 5 ml is then added and vials are counted in a liquid scintillation counter. A sample of ^3 H-5-HETE is applied and used for the identification of the formed 5-HETE.
# Total radioactivity in the test as well as the control samples are normalized and the amount of 5-HETE present is calculated accordingly.
# IC50 values are defined as the concentrations of test agents which caused a 50% inhibition of the formation of 5-HETE as compared to control and are determined by inspection of the concentration-response curves.
# The formation of 5-HETE in human leukocytes is considered a measure of 5-lipoxygenase activity. The protocol is described in the following.
# Fresh heparinized or EDTA treated human blood is mixed with 6% dextran-3% dextrose in isotonic saline in the ratio 0.25 ml dextran solution per 1.0 ml blood. […]
smiles,measurement,setting,value
"O=C(O)c1ccc(CCc2ccc(NC(=O)C3CS(=O)(=O)c4ccccc4C3=O)cc2)cc1 (stereo not drawn) [Example 12, 4-[2-[4-[[(3,4-Dihydro-4-oxo-2H-1-benzothiopyran-3-yl)carbonyl]amino]phenyl]ethyl]benzoic acid, 1,1-dioxide]","RBL, % Inhibition",[1],0.0%
O=C(Nc1ccc(CCc2ccc(C(F)(F)F)cc2)cc1)C1CS(=O)(=O)c2ccccc2C1=O (stereo not drawn) [Example 44],"LDAH, % Inhibition",[2],0.0%
same,"5LOA, % Inhibition",[3]; 1.00 E -5 M,+19.6%
same,"5LOA, % Inhibition",[3]; 2.00 E -5 M,+5.8%
same,"5LOA, % Inhibition",[3]; 4.00 E -5 M,30.0%
"COc1ccc(CCc2ccc(NC(=O)C(=O)c3[nH]c4cc(C)c(C)cc4c3O)cc2)cc1OC [Example 175, 1H-Indole-2-acetamide, N-[4-[2-(3,4-dimethoxyphenyl)ethyl]phenyl]-3-hydroxy-5,6-dimethyl-α-oxo]","LDAH, % Inhibition",[2],0.0%
same,"5LOA, % Inhibition",[3]; 1.00 E -5 M,7.0%
same,"5LOA, % Inhibition",[3]; 2.00 E -5 M,2.0%
same,"5LOA, % Inhibition",[3]; 2.00 E -6 M,8.0%
